Values joined by “and” are separate entries in the source; they are usually repeats but may differ in a detail not shown here. Equal values may be shown once. Read-outs that look alike come from different tables or passages of the source.
Legend:
C. albicans ATCC 10231 = test: Antimicrobial activity, broth microdilution MIC/MBC; assay type: cell-based, Candida albicans; settings: C. albicans ATCC 10231, 24 h at 37 °C, at least 90% growth inhibition; nd—not detected
[1] = tested on: Lepidium sativum L. roots; settings: 24 h incubation, mean(±SD), n = 3
[2] = tested on: Lepidium sativum L. seeds; settings: 24 h incubation, mean(±SD), n = 3
L929 fibroblasts = test: Mammalian cell cytotoxicity screening, resazurin viability; assay type: cell-based, mouse
E. coli ATCC 8739 = test: Antimicrobial activity, broth microdilution MIC/MBC; assay type: cell-based, Escherichia coli; settings: E. coli ATCC 8739, 24 h at 37 °C, at least 90% growth inhibition; nd—not detected
[3] = 0.01% (w/w) compound in the medium
[4] = 0.03% (w/w) compound in the medium
[5] = 0.05% (w/w) compound in the medium
[6] = 0.10% (w/w) compound in the medium
[7] = 0.30% (w/w) compound in the medium
[8] = 0.50% (w/w) compound in the medium
[9] = 1.00% (w/w) compound in the medium
[10] = 2.00% (w/w) compound in the medium
[11] = 3.00% (w/w) compound in the medium
[12] = 4.00% (w/w) compound in the medium
[13] = 5.00% (w/w) compound in the medium

Row | Structure (SMILES) | MIC (%) (C. albicans ATCC 10231) | Inhibition of the root growth in pregerminated Lepidium sativum seeds (IRG, %) [1, 3] | Inhibition of the root growth in pregerminated Lepidium sativum seeds (IRG, %) [1, 4] | Inhibition of the root growth in pregerminated Lepidium sativum seeds (IRG, %) [1, 5] | Inhibition of the root growth in pregerminated Lepidium sativum seeds (IRG, %) [1, 7] | Inhibition of the root growth in pregerminated Lepidium sativum seeds (IRG, %) [1, 8] | Inhibition of the root growth in pregerminated Lepidium sativum seeds (IRG, %) [1, 9] | Inhibition of the root growth in pregerminated Lepidium sativum seeds (IRG, %) [1, 10] | Inhibition of the root growth in pregerminated Lepidium sativum seeds (IRG, %) [1, 11] | Inhibition of the root growth in pregerminated Lepidium sativum seeds (IRG, %) [1, 12] | Inhibition of the root growth in pregerminated Lepidium sativum seeds (IRG, %) [1, 13] | Inhibition of the Lepidium sativum seeds germination (ISG, %) [2, 3] | Inhibition of the Lepidium sativum seeds germination (ISG, %) [2, 4] | Inhibition of the Lepidium sativum seeds germination (ISG, %) [2, 5] | Inhibition of the Lepidium sativum seeds germination (ISG, %) [2, 6] | Inhibition of the Lepidium sativum seeds germination (ISG, %) [2, 7] | Inhibition of the Lepidium sativum seeds germination (ISG, %) [2, 8] | Inhibition of the Lepidium sativum seeds germination (ISG, %) [2, 9] | Inhibition of the Lepidium sativum seeds germination (ISG, %) [2, 10] | Inhibition of the Lepidium sativum seeds germination (ISG, %) [2, 12] | further results
1 | N[C@@H](Cc1c[nH]cn1)C(=O)O.OCCN(CCO)CCO [[TEA][His]] | 2.50% | 1.1(±2.2) % | 12.9(±2.1) % | 15.7(±2.2) % | 28.6% | 37.1(±2.0) % | 48.6(±1.6) % | 62.9(±1.2) % | 72.9(±0.9) % | 80.0(±0.8) % | 84.3(±0.7) % | 0.0(±0.0) % | 1.9(±0.5) % | 3.7(±0.9) % | 5.6(±0.5) % | 7.4(±0.5) % | 9.3(±0.5) % | 12.0(±1.4) % | 14.8(±0.9) % | 27.8(±2.8) % | Inhibition of the root growth in pregerminated Lepidium sativum seeds (IRG, %) [1, 6]: 22.1(±2.1) %; Inhibition of the Lepidium sativum seeds germination (ISG, %) [2, 11]: 25.9(±1.2) %; Inhibition of the Lepidium sativum seeds germination (ISG, %) [2, 13]: 74.1(±0.5) %
2 | CSCC[C@H](N)C(=O)O.OCCN(CCO)CCO [[TEA][Met]] | 5.00% | 0.0(±0.0) % | 0.0(±0.0) % | 0.0(±0.0) % | 22.8(±3.3) % | 30.1(±3.8) % | 52.1(±2.2) % | 60.7(±2.0) % | 64.9(±1.4) % | 77.4(±1.3) % | 77.8(±0.9) % | 0.0(±0.2) % | 0.0(±0.1) % | 0.0(±0.1) % | 0.0(±0.1) % | 0.0(±0.0) % | 1.9(±1.3) % | 3.7(±0.5) % | 7.4(±0.9) % | 29.6(±0.8) % | ED20 (L929 fibroblasts; 24h exposure): 0.08±0.01%; ED50 (L929 fibroblasts; 24h exposure): 0.29±0.02% and 0.29%; ED80 (L929 fibroblasts; 24h exposure): 0.74±0.08%; ED20 (L929 fibroblasts; 48h exposure): 0.09±0.01%; ED50 (L929 fibroblasts; 48h exposure): 0.31±0.02%; ED80 (L929 fibroblasts; 48h exposure): 0.78±0.06%; Inhibition of the Lepidium sativum seeds germination (ISG, %) [2, 13]: 37.0(±2.5) %
3 | CC(O)C(N)C(=O)O.OCCN(CCO)CCO [[TEA][Thr]] | 3.75% | 0.0(±0.0) % | 17.7(±2.3) % | 19.7(±2.4) % | 37.8% | 66.6(±1.3) % | 73.7(±1.0) % | 80.3(±0.9) % | 88.0(±0.8) % | 92.7(±0.6) % | 96.2(±0.5) % | 0.0(±0.0) % | 3.8(±0.1) % | 6.7(±0.8) % | 11.3(±1.7) % | 15.1(±0.8) % | 16.8(±0.9) % | 18.9(±1.7) % | 21.7(±0.8) % | 45.3(±2.1) % | ED20 (L929 fibroblasts; 24h exposure): 0.40±0.09%; ED50 (L929 fibroblasts; 24h exposure): 0.57±0.03%; ED80 (L929 fibroblasts; 24h exposure): 0.73±0.14%; ED20 (L929 fibroblasts; 48h exposure): 0.26±0.03%; ED50 (L929 fibroblasts; 48h exposure): 0.38±0.02%; ED80 (L929 fibroblasts; 48h exposure): 0.50±0.03%; MIC (%) (E. coli ATCC 8739): 7.50%; Inhibition of the root growth in pregerminated Lepidium sativum seeds (IRG, %) [1, 6]: 21.8(±1.9) %
